Read-outs that look alike come from different tables or passages of the source.
What was measured:
GBF1 = target: T1, GBF1 (Homo sapiens, UniProt Q92538); test: GBF1-GFP distribution in transfected HeLa cells; type: cell-based; conditions: FLI-06 10 μM, BFA 10 μg/ml, GCA 10 μM, 10 h
T1 construct: expressed in transfected cells; host or cells: HeLa (transient)

BIP and ATF6 [1] = tested on: BIP and ATF6
Golgi apparatus = test: Immunofluorescence of Golgi and early secretory pathway markers in HeLa cells; type: cell-based
endocytosis = test: Transferrin uptake assay; type: cell-based
Procedure: FIG. 13: FLI-06 causes dispersal of early Golgi and TGN, but no tubulation of endosomes. Hela cells were incubated with DMSO or 10 iM FLI-06 or 1 ig/ml BFA for 18 h, fixed, stained with antibodies as indicated and imaged by fluorescence microscopy. Endosomes were visualized by adding Alexa555-labelled transferrin on ice and chasing for 15 min at 37° C. in the presence of indicated compounds. Arrows indicated tubulating endosomes, scalebar 10 im.
For the transferrin uptake assay cells were starved in serum free medium for 1 h at 37° C. Cells were then transferred on ice and medium was exchanged to serum free medium supplemented with 25 μg/ml AlexaFluor555-Transferrin conjugate (Molecular Probes) and test compounds. After 15 min on ice cells were incubated with pre-warmed serum-supplemented medium containing test compounds and incubated at 37° C.

YFP-GPI = test: Surface transport of YFP-GPI in HeLa cells; type: cell-based; conditions: 18 h; 1 ig/ml BFA or 10 iM FLI-06
KlothoS = test: Secretion of KlothoS from transfected HeLa cells; type: cell-based; conditions: 18 h
Procedure: Thereafter cells were fixed and analyzed by immunofluorescence microscopy. […] After incubating with compounds for 18 h media were collected, cells lysed and both analyzed by Western Blotting using Klotho antibody. As loading control membranes were probed for actin. […] […] Tunicamycin (Tun) and 5 mM DTT were used as positive controls. […] Shown is the average of three independent experiments, error bars indicate standard deviation.

BIP and ATF6 [2] = test: ER stress: BIP Western blot and ATF6 luciferase assay in HeLa cells; conditions: 6 or 24 h
microtubuli or actin = test: Microtubule and actin integrity in HeLa cells; type: cell-based; conditions: 4 h
NotchΔE-EGFP = test: cells; type: cell-based
From the text: To identify novel regulatory factors involved in Notch trafficking/processing an image-based high content screen was set up. […] NotchΔE-EGFP is a direct substrate for γ-secretase at the PM, and under physiological conditions is proteolytically processed to NICD-EGFP that translocates into the nucleus (for scheme see FIG. 1b), resulting in a strong nuclear EGFP-staining in steady state^15 (FIG. 1d). […] Importantly, changes in subcellular localization of the reporter are amenable to quantitation by automated microscopy^15. Accordingly, reporter fluorescence was determined in the nucleus (nuc) and in a ring around the nucleus (enuc), and the ratio enuc/nuc was evaluated (schematized in FIG. 1c). Thereafter, the assay design was functionally validated. […] The assay also reliably detected trafficking defects in the secretory pathway. […] Taken together, the assay was validated for reliably detecting concentration and time dependent changes in trafficking and processing of the Notch reporter.
Cells were seeded in 96-well plates at a density of 5000 cells/well in 100 μl medium. The next day, 100 μl medium containing the respective test compounds was added. Cells were incubated for 16 h, fixed and processed for automated microscopy. For the putative gamma-secretase inhibitors the enuc intensity was divided by the DAPT control and for the trafficking inhibitors normalized percentage inhibition against DAPT/DMSO controls of log 2 transformed nuc/enuc ratios were calculated. Relative activity values were read into “R” (http://www.r-project.org/) and EC50 estimates were calculated using four-parameter log-logistic fit with the package “drc”^51.
Images were acquired on an ArrayScan VTi automated microscope (ThermoFisher) and numerical data were extracted with the Compartmental Analysis BioApplication of the bundled software suite. Compound screening raw data were collected at the FMP and data transformation was performed according to standard procedures (ref 17 and supp. Refs 6-7).

COPII vesicles = test: In vitro COPII budding assay with permeabilized cells; type: biochemical; conditions: no FLI-06 pretreatment of cells
ER = ER tubule-to-sheet live-cell imaging in COS cells (prlss-KDEL-mRFP); type: cell-based; conditions: 10 iM, 2 h
Procedure: FIG. 7: FLI-06 induces ER sheet formation. A) COS cells transfected with prlss-KDEL-mRFP were incubated with 10 μM FLI-06 for indicated times and imaged by live-cell microscopy. The inserts are magnifications of the boxed areas. B) Images from cells treated as in A) were scored for the percentage of cells that lost most of their ER-tubules. For each time point 40-60 cells were counted. Data represent mean percentages, error bars SEM, n=3 independent experiments.
FIG. 16: Only ER exit inhibitors convert ER tubules to sheets. COS cells plated on LabTek chambered coverslips were transiently transfected with the ER-marker prlss-KDEL-mRFP, incubated the next day for 2 h with 10 iM of indicated compounds and imaged by live-cell microscopy. […] FLI-06+CHX, cells were additionally incubated in 40 iM cycloheximide. Nife, nifedipine; nimo, nimodipine. Numbers refer to numbering in FIG. 5a.
We noted a morphological change of the ER upon FLI-06 incubation that was difficult to capture in fixed cells. Live-cell imaging was therefore performed in COS cells transfected with the ER marker prlss-KDEL-mRFP (supp. Ref 3) and FLI-06 was added for 120 min (FIG. 7a). After 120 min almost all cells had no detectable ER-tubules anymore and instead were filled with large sheet-like structures. […] To test whether the morphological change is related to the inhibition of ER exit, next our set of FLI-06 derivatives was tested. […] Rather, the ER-sheets are indicative for structural changes, maybe initiated within ERES, that inhibit ER exit.

T1 sequence (Q92538 whole entry, species assumed): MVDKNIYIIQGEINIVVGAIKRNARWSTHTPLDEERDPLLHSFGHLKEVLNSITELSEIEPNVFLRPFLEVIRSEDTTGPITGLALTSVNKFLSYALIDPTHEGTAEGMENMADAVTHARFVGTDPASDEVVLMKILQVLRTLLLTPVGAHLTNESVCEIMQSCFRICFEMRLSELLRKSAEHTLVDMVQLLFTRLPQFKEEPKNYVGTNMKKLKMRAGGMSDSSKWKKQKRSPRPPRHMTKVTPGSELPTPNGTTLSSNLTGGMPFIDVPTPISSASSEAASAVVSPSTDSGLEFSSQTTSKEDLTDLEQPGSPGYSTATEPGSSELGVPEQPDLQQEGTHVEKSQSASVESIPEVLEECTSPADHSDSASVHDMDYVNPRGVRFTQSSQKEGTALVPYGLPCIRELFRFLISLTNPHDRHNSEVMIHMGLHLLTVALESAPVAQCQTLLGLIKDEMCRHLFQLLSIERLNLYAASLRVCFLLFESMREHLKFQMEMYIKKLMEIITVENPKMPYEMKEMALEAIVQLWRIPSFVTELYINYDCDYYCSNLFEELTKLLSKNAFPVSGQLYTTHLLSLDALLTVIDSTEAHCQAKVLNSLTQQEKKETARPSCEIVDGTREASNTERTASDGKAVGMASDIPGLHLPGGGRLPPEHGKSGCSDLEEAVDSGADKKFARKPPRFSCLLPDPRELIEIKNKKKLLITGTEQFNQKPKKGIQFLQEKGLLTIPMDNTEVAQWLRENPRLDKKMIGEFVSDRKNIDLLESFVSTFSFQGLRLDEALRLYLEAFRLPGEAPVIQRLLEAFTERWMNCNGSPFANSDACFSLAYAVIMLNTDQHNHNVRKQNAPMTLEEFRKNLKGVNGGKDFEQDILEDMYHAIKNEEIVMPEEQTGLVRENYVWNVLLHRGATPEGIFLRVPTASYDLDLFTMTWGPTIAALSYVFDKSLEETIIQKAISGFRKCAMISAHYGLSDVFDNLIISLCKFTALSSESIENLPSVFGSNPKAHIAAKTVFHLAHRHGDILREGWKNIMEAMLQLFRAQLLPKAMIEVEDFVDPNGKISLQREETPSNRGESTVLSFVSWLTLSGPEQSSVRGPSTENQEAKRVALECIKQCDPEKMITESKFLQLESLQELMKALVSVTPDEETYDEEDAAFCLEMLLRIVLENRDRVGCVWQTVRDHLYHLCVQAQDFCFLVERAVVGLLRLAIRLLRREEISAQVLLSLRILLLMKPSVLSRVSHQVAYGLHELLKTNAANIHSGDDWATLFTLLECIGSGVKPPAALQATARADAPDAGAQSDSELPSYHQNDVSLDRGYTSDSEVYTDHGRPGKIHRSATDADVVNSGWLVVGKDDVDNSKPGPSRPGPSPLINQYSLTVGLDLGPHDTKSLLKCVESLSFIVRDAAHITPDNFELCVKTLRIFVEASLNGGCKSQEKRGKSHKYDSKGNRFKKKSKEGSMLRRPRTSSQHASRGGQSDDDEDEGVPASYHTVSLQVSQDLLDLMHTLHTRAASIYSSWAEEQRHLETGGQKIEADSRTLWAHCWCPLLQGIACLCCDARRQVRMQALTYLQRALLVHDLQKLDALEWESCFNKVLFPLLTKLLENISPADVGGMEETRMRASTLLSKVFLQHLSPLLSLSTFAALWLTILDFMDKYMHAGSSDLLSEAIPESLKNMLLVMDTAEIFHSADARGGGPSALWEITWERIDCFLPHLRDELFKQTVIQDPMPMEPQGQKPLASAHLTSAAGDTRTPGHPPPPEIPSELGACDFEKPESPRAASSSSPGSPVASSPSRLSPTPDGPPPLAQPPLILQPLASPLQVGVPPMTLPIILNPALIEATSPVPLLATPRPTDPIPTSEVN

Structure (SMILES): Fc1cc(F)c2c(c1)[C@H]1C=CC[C@H]1C(c1cccnc1)N2 (mixture of isomers) [GCA, Golgicide A, reference compound]
- distribution of GBF1-GFP (GBF1): recruited to the fragmented Golgi
- ER-stress (BIP up-regulation, ATF6 luciferase) (BIP and ATF6 [1]): caused ER-stress

Structure (SMILES): C[C@H]1CCC/C=C/[C@@H]2C[C@H](O)C[C@H]2[C@H](O)/C=C/C(=O)O1 [BFA, Brefeldin A, reference compound]
- time to loss of Golgi-like juxtanuclear βCOP staining (Golgi apparatus; 1 ig/ml BFA or 10 iM FLI-06): 10 min
- distribution of GM130 and TGN46 (Golgi apparatus; 10 iM FLI-06 or 1 ig/ml BFA, 18 h): dispersal of the cis-Golgi marker GM130 and of the trans-Golgi network (TGN) marker TGN46
- hyperglycosylation of VSVG-EGFP (Golgi apparatus; 4 h at 40° C. with cycloheximide): led to hyperglycosylation in the ER
- endocytosis of transferrin (endocytosis): did not affect endocytosis
- distribution of GBF1-GFP (GBF1): recruited to the fragmented Golgi
- surface transport of YFP-GPI (YFP-GPI): inhibit surface transport of YFP-GPI
- secretion of KlothoS (KlothoS): inhibit secretion of KlothoS
- ER-stress (BIP up-regulation, ATF6 luciferase) (BIP and ATF6 [2]): caused ER-stress

Structure (SMILES): C=C1[C@@H](C)[C@H]2[C@H](Cc3ccccc3)NC(=O)[C@]23[C@H](OC(C)=O)/C=C/[C@@](C)(O)C(=O)[C@@H](C)C/C=C/[C@H]3[C@@H]1O [Cytochalasin D, cytochalasin D, reference compound]
- actin polymerization and distribution (microtubuli or actin; 2 iM cytochalasin D or 10 iM FLI-06): depolymerized f-actin

Structure (SMILES): CC1=C(C(=O)OC2CCCCC2)C(c2ccccc2)C2=C(CC(C)(C)CC2=O)N1 (stereo not shown) [FLI-25]
- activity in NotchΔE-EGFP cells (enuc/nuc ratios) (NotchΔE-EGFP; SAR and prior-art comparison, FIG. 5a/5b): inactive
- COPII budding reaction, compound added directly to the assay (COPII vesicles): neither 10 nor 100 μM of FLI-25 had an effect

Structure (SMILES): CCCCCOC(=O)C1=C(C)NC2=C(C(=O)CC(C)(C)C2)C1c1ccc([N+](=O)[O-])cc1 (stereo not shown) [FLI-27]
- ER tubule-to-sheets phenotype (ER): elicited the tubule-to-sheets phenotype

Structure (SMILES): CC1=C(C(=O)OC2CCCCCC2)C(c2ccc([N+](=O)[O-])cc2)C2=C(CC(C)(C)CC2=O)N1 (stereo not shown) [FLI-28]
- activity relative to compound 1 (FLI-06) (NotchΔE-EGFP; enuc/nuc ratios in NotchΔE-EGFP cells): twice as active as compound 1
- ER tubule-to-sheets phenotype (ER): elicited the tubule-to-sheets phenotype

Structure (SMILES): O=S(=O)(NCCNC/C=C/c1ccc(Br)cc1)c1cccc2cnccc12 [H89, reference compound]
- COPII budding reaction, compound added directly to the assay (COPII vesicles): completely blocked formation of COPII vesicles

Structure (SMILES): CC1=C(C(=O)OC2CCCCC2)C(c2ccccc2)C2=C(CC(C)(C)CC2=O)N1 (stereo not shown) [compound 5]
- ER tubule-to-sheets phenotype (ER): elicited the tubule-to-sheets phenotype

Structure (SMILES): COC(=O)Nc1nc2ccc(C(=O)c3cccs3)cc2[nH]1 [nocodazole, reference compound]
- microtubule network (microtubuli or actin; 1.5 ig/ml nocodazole or 10 iM FLI-06): almost completely disintegrated

From US9828344B2, “Inhibitors of the notch signaling pathway and secretion for use in medicine” (Leibniz-Institut für Altersforschung Fritz-Lipmann-Institut …, priority 2012, dated 2017)
